In patent US11242333B2, “Inhibitors of plasma kallikrein” (Kalvista Pharmaceuticals Limited, priority 2013, dated 2022):

How the values were obtained:
[1] = molecular target: Human plasma kallikrein (Homo sapiens (Human), UniProt P03952); experiment: Determination of the IC50 for plasma kallikrein; assay type: biochemical; details: 37° C., fluorogenic substrate H-DPro-Phe-Arg-AFC; read-out: IC50 (human PKal)
Procedure: Determination of the IC50 for plasma kallikrein
(§1) Plasma kallikrein inhibitory activity in vitro was determined using standard published methods (see e.g. Johansen et al., Int. J. Tiss. Reac. 1986, 8, 185; Shori et al., Biochem. Pharmacol., 1992, 43, 1209; Stürzebecher et al., Biol. Chem. Hoppe-Seyler, 1992, 373, 1025). Human plasma kallikrein (Protogen) was incubated at 37° C. with the fluorogenic substrate H-DPro-Phe-Arg-AFC and various concentrations of the test compound. Residual enzyme activity (initial rate of reaction) was determined by measuring the change in […] at 410 nm and the IC50 value for the test compound was determined.

[2] = molecular target: Human KLK1 (Homo sapiens (Human), UniProt P06870); experiment: Determination of the IC50 for KLK1; assay type: biochemical; details: 37° C., fluorogenic substrate H-DVal-Leu-Arg-AFC
Human KLK1, sequence (P06870 25-262): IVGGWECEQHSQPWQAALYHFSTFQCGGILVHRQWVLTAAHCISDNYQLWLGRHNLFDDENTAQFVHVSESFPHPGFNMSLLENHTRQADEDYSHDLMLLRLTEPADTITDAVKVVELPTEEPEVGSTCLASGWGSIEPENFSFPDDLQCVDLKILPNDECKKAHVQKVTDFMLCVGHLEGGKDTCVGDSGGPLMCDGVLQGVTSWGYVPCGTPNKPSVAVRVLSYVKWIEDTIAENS
Procedure: Determination of the IC50 for KLK1
as §1, with “KLK1” for “Plasma kallikrein”, “KLK1 (Callbiochem)” for “plasma kallikrein (Protogen)”, “H-DVal-Leu-Arg-AFC” for “H-DPro-Phe-Arg-AFC”

Human plasma kallikrein, sequence (P03952 391-638): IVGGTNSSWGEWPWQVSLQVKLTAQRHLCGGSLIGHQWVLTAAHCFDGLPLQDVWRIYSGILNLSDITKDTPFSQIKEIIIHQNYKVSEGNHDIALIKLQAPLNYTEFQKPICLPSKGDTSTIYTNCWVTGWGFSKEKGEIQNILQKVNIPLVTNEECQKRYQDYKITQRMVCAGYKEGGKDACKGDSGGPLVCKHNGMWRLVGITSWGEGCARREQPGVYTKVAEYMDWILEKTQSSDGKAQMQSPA
Human plasma kallikrein, sequence (P03952 20-390 partner): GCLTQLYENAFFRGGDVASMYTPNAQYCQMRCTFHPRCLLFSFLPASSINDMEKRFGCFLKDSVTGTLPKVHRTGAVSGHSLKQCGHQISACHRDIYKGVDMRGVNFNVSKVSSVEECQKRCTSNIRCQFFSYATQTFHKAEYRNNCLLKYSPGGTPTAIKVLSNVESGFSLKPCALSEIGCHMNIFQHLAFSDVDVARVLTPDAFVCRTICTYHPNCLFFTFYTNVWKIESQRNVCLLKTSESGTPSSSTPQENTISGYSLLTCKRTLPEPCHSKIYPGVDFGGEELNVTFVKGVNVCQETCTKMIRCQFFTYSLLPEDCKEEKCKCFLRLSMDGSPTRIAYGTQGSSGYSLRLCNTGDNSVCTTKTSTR

Row | IC50 [1] [nM] | IC50 [2] [nM] | Compound
1 | 3.86 |  | Cc1cnn(Cc2ccc(Cc3cncc(C(=O)NCc4ccc5c(N)nccc5c4)c3)cc2)c1 [Example 1]
2 | 216 |  | Cc1cnn(Cc2ccc(Cc3cncc(C(=O)NCc4cnc5[nH]ccc5c4)c3)cc2)c1 [Example 2, 5-({4-[(4-Methylpyrazol-1-yl)methyl]phenyl}methyl)-N-{7H-pyrrolo[2,3-b]pyridin-5-ylmethyl}pyridine-3-carboxamide]
3 | 580 | 27800 | O=C(NCc1cnc2[nH]ccc2c1)c1ccc(=O)n(Cc2ccc(Cn3ccccc3=O)cc2)c1 [Example 6, 6-Oxo-1-({4-[(2-oxopyridin-1-yl)methyl]phenyl}methyl)-N-{7H-pyrrolo[2,3-b]pyridin-5-ylmethyl}pyridine-3-carboxamide]

Row | Compound | IC50 [1] [nM] | IC50 [2] [nM]
4 | Cc1cnn(Cc2ccc(Cc3ccnc(C(=O)NCc4cnc5[nH]ccc5c4)c3)cc2)c1 [Example 4, 4-({4-[(4-Methylpyrazol-1-yl)methyl]phenyl}methyl)-N-{7H-pyrrolo[2,3-b]pyridin-5-ylmethyl}pyridine-2-carboxamide] | 6610 | 
